Data: US12065429B2, “Small molecule modulators of IL-17” (LEO Pharma A/S, priority 2022, dated 2024)
Values after ≈ are worked out from the molar mass of the structure shown.

Columns and labels:
[1] = Human liver microsome (HLM) clearance assay; assay type: in vitro ADME; details: human liver microsomes 0.5 mg/mL, NADPH 1 mM, 0.5 μM compound, 40 min
Description: Example 63: Human Liver Microsome (HLM) Clearance Assay
Samples were taken out before addition of NADPH, and at 5, 10, 20 and 40 minutes thereafter and protein precipitation using cold acetonitrile with added internal standard was performed prior to centrifugation and sample analysis using compound specific LCMS/MS methods. Control incubations in buffer and without NADPH were performed in the same manner. Compound depletion was determined and apparent clearance (CLapp) was calculated.

Solubility assay = assay type: physicochemical; details: aqueous buffer, kinetic from dmso stock; 0.067 M phosphate buffer pH 6.5, 24 hours shaking, from 10 mM DMSO stock
Description: After centrifugation, the supernatant was analyzed by HPLC-UV. The solubility was defined as the concentration of the test substance in the selected solvent. It was determined by correlation with an external standard calibration curve.

| Structure (SMILES) | HLM Clapp [1] [mL/min/kg] | solubility at 24 h (Solubility assay) [µg/mL] |
| --- | --- | --- |
| Cc1c(-c2ccc(NC(=O)[C@@H](NC(=O)c3ccnn3C(C)C)C(C3CC3)C3CC3)nc2Cl)cc(F)c[n+]1[O-] [Example 19, N-[(1S)-1-[[6-chloro-5-(5-fluoro-2-methyl-1-oxido-pyridin-1-ium-3-yl)-2-pyridyl]carbamoyl]-2,2-dicyclopropyl-ethyl]-2-isopropyl-pyrazole-3-carboxamide] | <8 | 18 (≈ 33.3 µM) |
| Cc1cc(-c2ccc(NC(=O)[C@@H](NC(=O)c3ccnn3C(C)C)C(C3CC3)C3CC3)nc2F)c(C2CC2)[n+]([O-])c1 [Example 13, N-[(1S)-2,2-dicyclopropyl-1-[[5-(2-cyclopropyl-5-methyl-1-oxido-pyridin-1-ium-3-yl)-6-fluoro-2-pyridyl]carbamoyl]ethyl]-2-isopropyl-pyrazole-3-carboxamide] | 14 | 26 (≈ 47.6 µM) |
| CCc1c(-c2ccc(NC(=O)[C@@H](NC(=O)c3ccnn3C(C)C)C(C3CC3)C3CC3)nc2F)ccc[n+]1[O-] [Example 5, N-[(1S)-1-(dicyclopropylmethyl)-2-[[5-(2-ethyl-1-oxido-pyridin-1-ium-3-yl)-6-fluoro-2-pyridyl]amino]-2-oxo-ethyl]-2-isopropyl-pyrazole-3-carboxamide] | <8 | 35 (≈ 67.2 µM) |
| Cc1cc[n+]([O-])c(C)c1-c1ccc(NC(=O)[C@@H](NC(=O)c2ccnn2C(C)C)C(C2CC2)C2CC2)nc1F [Example 4, N-[(1S)-1-(dicyclopropylmethyl)-2-[[5-(2,4-dimethyl-1-oxido-pyridin-1-ium-3-yl)-6-fluoro-2-pyridyl]amino]-2-oxo-ethyl]-2-isopropyl-pyrazole-3-carboxamide] | 9 | 74 (≈ 142 µM) |
| Cc1c(-c2ccc(NC(=O)[C@@H](NC(=O)c3ccnn3C(C)C)C(C3CC3)C3CC3)nc2F)cc(Cl)c[n+]1[O-] [Example 11, N-[(1S)-1-[[5-(5-chloro-2-methyl-1-oxido-pyridin-1-ium-3-yl)-6-fluoro-2-pyridyl]carbamoyl]-2,2-dicyclopropyl-ethyl]-2-isopropyl-pyrazole-3-carboxamide] | <8 | 6.5 (≈ 12 µM) |
| CC(C)n1nccc1C(=O)N[C@H](C(=O)Nc1ccc(-c2ccc[n+]([O-])c2C2CC2)c(F)n1)C(C1CC1)C1CC1 [Example 7, N-[(1S)-2,2-dicyclopropyl-1-[[5-(2-cyclopropyl-1-oxido-pyridin-1-ium-3-yl)-6-fluoro-2-pyridyl]carbamoyl]ethyl]-2-isopropyl-pyrazole-3-carboxamide] | <8 | 38 (≈ 71.3 µM) |
| Cc1c(-c2ccc(NC(=O)[C@@H](NC(=O)c3ccnn3C(C)C)C(C3CC3)C3CC3)nc2F)ccc[n+]1[O-] [Example 16, N-[(1S)-1-(dicyclopropylmethyl)-2-[[6-fluoro-5-(2-methyl-1-oxido-pyridin-1-ium-3-yl)-2-pyridyl]amino]-2-oxo-ethyl]-2-isopropyl-pyrazole-3-carboxamide] | <8 | 60 (≈ 118 µM) |
| Cc1c(-c2ccc(NC(=O)[C@@H](NC(=O)c3ccnn3C(C)C)C(C3CC3)C3CC3)nc2F)cc(OCF)c[n+]1[O-] [Example 9, N-[(1S)-1-(dicyclopropylmethyl)-2-[[6-fluoro-5-[5-(fluoromethoxy)-2-methyl-1-oxido-pyridin-1-ium-3-yl]-2-pyridyl]amino]-2-oxo-ethyl]-2-isopropyl-pyrazole-3-carboxamide] | <8 | 23 (≈ 41.5 µM) |
| CCCn1nccc1C(=O)N[C@H](C(=O)Nc1ccc(-c2cc(C)c[n+]([O-])c2C)c(F)n1)C(C1CC1)C1CC1 [Example 20, N-[(1S)-1-(dicyclopropylmethyl)-2-[[5-(2,5-dimethyl-1-oxido-pyridin-1-ium-3-yl)-6-fluoro-2-pyridyl]amino]-2-oxo-ethyl]-2-propyl-pyrazole-3-carboxamide] | 74 | 38 (≈ 73 µM) |
| Cc1c(-c2ccc(NC(=O)[C@@H](NC(=O)c3ccnn3C(C)C)C(C3CC3)C3CC3)nc2F)cc(C(F)(F)F)c[n+]1[O-] [Example 12, N-[(1S)-1-(dicyclopropylmethyl)-2-[[6-fluoro-5-[2-methyl-1-oxido-5-(trifluoromethyl)pyridin-1-ium-3-yl]-2-pyridyl]amino]-2-oxo-ethyl]-2-isopropyl-pyrazole-3-carboxamide] | <8 | 6 (≈ 10.4 µM) |

Other lines, results leading:

| HLM Clapp [1] [mL/min/kg] | solubility at 24 h (Solubility assay) [µg/mL] | Structure (SMILES) |
| --- | --- | --- |
| 63 | < 1 | Cc1c(-c2ccc(NC(=O)[C@@H](NC(=O)c3ccnn3C(C)C)C(C3CC3)C3CC3)nc2F)c(C(F)(F)F)cc[n+]1[O-] (single isomer, unassigned) [Example 54] |
| 8 | – | Cc1cc(-c2ccc(NC(=O)[C@@H](NC(=O)c3ccnn3CC3CC3)C(C3CC3)C3CC3)nc2F)c(C)[n+]([O-])c1 [Example 29, 2-(cyclopropylmethyl)-N-[(1S)-1-(dicyclopropylmethyl)-2-[[5-(2,5-dimethyl-1-oxido-pyridin-1-ium-3-yl)-6-fluoro-2-pyridyl]amino]-2-oxo-ethyl]pyrazole-3-carboxamide] |
| 23 | – | Cc1cc(-c2ccc(NC(=O)[C@@H](NC(=O)c3ccnn3CC3CC(F)(F)C3)C(C3CC3)C3CC3)nc2F)c(C)[n+]([O-])c1 [Example 32, N-[(1S)-1-(dicyclopropylmethyl)-2-[[5-(2,5-dimethyl-1-oxido-pyridin-1-ium-3-yl)-6-fluoro-2-pyridyl]amino]-2-oxo-ethyl]-2-[(3,3-difluorocyclobutyl)methyl]pyrazole-3-carboxamide] |
| >750 | – | Cc1cc(-c2ccc(NC(=O)[C@@H](NC(=O)c3ccnn3CC(C)C)C(C3CC3)C3CC3)nc2F)c(C)[n+]([O-])c1 [Example 28, N-[(1S)-1-(dicyclopropylmethyl)-2-[[5-(2,5-dimethyl-1-oxido-pyridin-1-ium-3-yl)-6-fluoro-2-pyridyl]amino]-2-oxo-ethyl]-2-isobutyl-pyrazole-3-carboxamide] |
| <8 | – | Cc1cc(-c2ccc(NC(=O)[C@@H](NC(=O)c3ccnn3C3CC3)C(C3CC3)C3CC3)nc2F)c(C)[n+]([O-])c1 [Example 27, 2-cyclopropyl-N-[(1S)-1-(dicyclopropylmethyl)-2-[[5-(2,5-dimethyl-1-oxido-pyridin-1-ium-3-yl)-6-fluoro-2-pyridyl]amino]-2-oxo-ethyl]pyrazole-3-carboxamide] |
| <8 | – | Cc1cc(-c2ccc(NC(=O)[C@@H](NC(=O)c3cnnn3C(C)C)C(C3CC3)C3CC3)nc2F)c(C)[n+]([O-])c1 [Example 23, N-[(1S)-1-(dicyclopropylmethyl)-2-[[5-(2,5-dimethyl-1-oxido-pyridin-1-ium-3-yl)-6-fluoro-2-pyridyl]amino]-2-oxo-ethyl]-3-isopropyl-triazole-4-carboxamide] |
| 250 | – | Cc1cc(-c2ccc(NC(=O)[C@@H](NC(=O)c3ccnn3C3CCC3)C(C3CC3)C3CC3)nc2F)c(C)[n+]([O-])c1 [Example 25, 2-cyclobutyl-N-[(1S)-1-(dicyclopropylmethyl)-2-[[5-(2,5-dimethyl-1-oxido-pyridin-1-ium-3-yl)-6-fluoro-2-pyridyl]amino]-2-oxo-ethyl]pyrazole-3-carboxamide] |
| 10 | < 1 | CC(C)n1nccc1C(=O)N[C@H](C(=O)Nc1ccc(-c2c[n+]([O-])cc(F)c2C(F)(F)F)c(F)n1)C(C1CC1)C1CC1 [Example 50, N-[(1S)-1-(dicyclopropylmethyl)-2-[[6-fluoro-5-[5-fluoro-1-oxido-4-(trifluoromethyl)pyridin-1-ium-3-yl]-2-pyridyl]amino]-2-oxo-ethyl]-2-isopropyl-pyrazole-3-carboxamide] |
| <8 | 25 (≈ 46.1 µM) | CC(C)n1nccc1C(=O)N[C@H](C(=O)Nc1ccc(-c2c[n+]([O-])ccc2C(F)F)c(F)n1)C(C1CC1)C1CC1 [Example 51, N-[(1S)-1-(dicyclopropylmethyl)-2-[[5-[4-(difluoromethyl)-1-oxido-pyridin-1-ium-3-yl]-6-fluoro-2-pyridyl]amino]-2-oxo-ethyl]-2-isopropyl-pyrazole-3-carboxamide] |
| <8 | – | Cc1cc(-c2ccc(NC(=O)[C@@H](NC(=O)c3ccnn3CC(F)F)C(C3CC3)C3CC3)nc2F)c(C)[n+]([O-])c1 [Example 24, N-[(1S)-1-(dicyclopropylmethyl)-2-[[5-(2,5-dimethyl-1-oxido-pyridin-1-ium-3-yl)-6-fluoro-2-pyridyl]amino]-2-oxo-ethyl]-2-(2,2-difluoroethyl)pyrazole-3-carboxamide] |
| <8 | – | Cc1cc(-c2ccc(NC(=O)[C@@H](NC(=O)c3ccnn3C(F)F)C(C3CC3)C3CC3)nc2F)c(C)[n+]([O-])c1 [Example 26, N-[(1S)-1-(dicyclopropylmethyl)-2-[[5-(2,5-dimethyl-1-oxido-pyridin-1-ium-3-yl)-6-fluoro-2-pyridyl]amino]-2-oxo-ethyl]-2-(difluoromethyl)pyrazole-3-carboxamide] |
| <8 | – | CC(C)n1nccc1C(=O)N[C@H](C(=O)Nc1ccc(-c2c[n+]([O-])ccc2C2CC2)c(F)n1)C(C1CC1)C1CC1 [Example 47, N-[(1S)-2,2-dicyclopropyl-1-[[5-(4-cyclopropyl-1-oxido-pyridin-1-ium-3-yl)-6-fluoro-2-pyridyl]carbamoyl]ethyl]-2-isopropyl-pyrazole-3-carboxamide] |
